Assay [1] deals with T1, Bifunctional dihydrofolate reductase-thymidylate synthase (Toxoplasma gondii, UniProt Q07422).
T1 sequence (Q07422 whole entry): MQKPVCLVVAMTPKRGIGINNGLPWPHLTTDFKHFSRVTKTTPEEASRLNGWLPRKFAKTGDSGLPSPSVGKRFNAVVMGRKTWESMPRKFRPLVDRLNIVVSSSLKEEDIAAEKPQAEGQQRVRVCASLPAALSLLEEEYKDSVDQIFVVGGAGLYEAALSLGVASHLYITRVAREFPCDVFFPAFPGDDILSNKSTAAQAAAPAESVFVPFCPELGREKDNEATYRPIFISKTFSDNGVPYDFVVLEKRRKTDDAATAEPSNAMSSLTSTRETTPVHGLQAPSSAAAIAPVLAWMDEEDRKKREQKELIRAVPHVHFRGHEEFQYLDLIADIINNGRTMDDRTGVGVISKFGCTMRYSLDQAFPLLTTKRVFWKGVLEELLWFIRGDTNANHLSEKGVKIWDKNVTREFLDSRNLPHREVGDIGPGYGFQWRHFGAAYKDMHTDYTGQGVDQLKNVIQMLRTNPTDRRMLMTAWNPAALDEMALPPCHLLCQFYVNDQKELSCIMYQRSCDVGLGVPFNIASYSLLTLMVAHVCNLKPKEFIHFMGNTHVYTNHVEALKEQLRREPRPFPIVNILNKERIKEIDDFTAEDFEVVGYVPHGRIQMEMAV
Description: Inhibitory activity against Dihydrohydrofolate reductase(DHFR) of Toxoplasma gondii

In assay [2] the target is T2, Dihydrofolate reductase (Mycobacterium avium, UniProt O30463).
T2 sequence (O30463 whole entry): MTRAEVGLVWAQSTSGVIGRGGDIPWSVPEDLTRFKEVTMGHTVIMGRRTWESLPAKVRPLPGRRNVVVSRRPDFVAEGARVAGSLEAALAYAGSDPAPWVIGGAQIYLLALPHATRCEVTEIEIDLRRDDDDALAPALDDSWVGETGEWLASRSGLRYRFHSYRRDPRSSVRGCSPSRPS
Description: Inhibition of Dihydrohydrofolate reductase(DHFR) of Mycobacterium avium

Assay [3] in a line: Relative affinity for Dihydrofolate reductase of rat liver and Mycobacterium avium.
Assay [4] concerns the target T3, Dihydrofolate reductase (Rattus norvegicus, UniProt Q920D2).
T3 sequence (Q920D2 whole entry): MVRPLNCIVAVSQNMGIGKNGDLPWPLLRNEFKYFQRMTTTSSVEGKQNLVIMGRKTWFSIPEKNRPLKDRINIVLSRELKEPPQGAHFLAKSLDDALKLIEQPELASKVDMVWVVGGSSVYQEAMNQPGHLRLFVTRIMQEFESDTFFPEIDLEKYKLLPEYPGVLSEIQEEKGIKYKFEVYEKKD
Description: Inhibitory activity against Dihydrohydrofolate reductase (DHFR) of rat

The structures appear in SMILES notation.

We go through nine compounds from ChEMBL document CHEMBL1136782, “Further studies on 2,4-diamino-5-(2',5'-disubstituted benzyl)pyrimidines as potent and selective inhibitors of dihydrofolate reductases from three major opportunistic pathogens of AIDS” (J Med Chem, 2003).

In assay [1], `Nc1nc(N)c2nc(-c3ccccc3)c(-c3ccccc3)nc2n1` displayed an IC50 of 240 nM.
Same read-out and setting: to `Cc1cccc(-c2nc3c(N)nc(N)nc3nc2N)c1` belongs 18 nM.
Same read-out and setting: with `Nc1nc(N)c2nc(C(=O)c3ccccc3)c(-c3ccccc3)nc2n1` the figure was 860 nM; with `Nc1nc(N)c2nc(CCSc3ccccc3)cnc2n1`, 770 nM.
Consider `COc1ccc(C#CCCCC(=O)O)cc1Cc1cnc(N)nc1N`, for which, on Dihydrofolate reductase [2], half-maximal inhibition (IC50) required 7.8 nM.
Consider `COc1ccc(C#CCOc2ccccc2C(=O)O)cc1Cc1cnc(N)nc1N`, for which, in assay [3], the Selectivity index was 170.
`COc1cc(Cc2cnc(N)nc2N)cc(OC)c1-n1cccc1`: the 50% inhibitory concentration (IC50) in assay [1] turned out to be 470 nM.
`COc1ccc(OCCCC(=O)O)cc1Cc1cnc(N)nc1N`: the half-inhibitory concentration (IC50) against Dihydrofolate reductase [4] came to 2700 nM.
Consider `Nc1nc(N)c2c(CNc3cccc4c3CCCC4)c[nH]c2n1`, for which, in assay [1], it took 1100 nM to reach half-maximal inhibition (IC50).

The IC50 is the midpoint of a concentration-inhibition curve.
